Reference: ChEMBL document CHEMBL1146672, “Discovery and SAR development of 2-(phenylamino) imidazolines as prostacyclin receptor antagonists [corrected]” (Bioorg Med Chem Lett, 2004)

system: SH-SY5Y; experiment: Compound was tested for antagonism of carbaprostacyclin-stimulated cAMP accumulation in human SH-SY5Y neuroblastoma cells; assay type: functional; conditions: not given

Structure (SMILES) | pKB
c1cc(NC2=NCCN2)ccc1Cc1ccc(OCC2CCOCC2)cc1 | 8.5
CCCCCCOc1ccc(Cc2ccc(NC3=NCCN3)cc2)cc1 | 8.2
c1ccc(COc2ccc(Cc3ccc(NC4=NCCN4)cc3)cc2)cc1 | 7.7
c1cc(NC2=NCCN2)ccc1Cc1ccc(OC2CCCC2)cc1 | 8.9
c1cc(NC2=NCCN2)ccc1Cc1ccc(OC2CCCCC2)cc1 | 8.6
FC(F)(F)COc1ccc(Cc2ccc(NC3=NCCN3)cc2)cc1 | 8.7
CC(C)Oc1ccc(Cc2ccc(NC3=NCCN3)cc2)cc1 | 8.8
CCCOc1ccc(Cc2ccc(NC3=NCCN3)cc2)cc1 | 8.8
OCCOc1ccc(Cc2ccc(NC3=NCCN3)cc2)cc1 | 8
CC(C)COc1ccc(Cc2ccc(NC3=NCCN3)cc2)cc1 | 8.8
CCCCOc1ccc(Cc2ccc(NC3=NCCN3)cc2)cc1 | 9
COCCOc1ccc(Cc2ccc(NC3=NCCN3)cc2)cc1 | 8
CCOc1ccc(Cc2ccc(NC3=NCCN3)cc2)cc1 | 8.2
COc1ccc(Cc2ccc(NC3=NCCN3)cc2)cc1 | 7.7
c1cc(NC2=NCCN2)ccc1Cc1ccc(OC2CCOCC2)cc1 | 8.4

system: Rattus norvegicus; experiment: Effective dose was determined against carrageenan-induced paw hyperalgesia in the rat on i.v. administration; assay type: functional; conditions: iv

Structure (SMILES) | ED50 [mg/kg]
CC(C)Oc1ccc(Cc2ccc(NC3=NCCN3)cc2)cc1 | 2.8

system: Rattus norvegicus; experiment: Effective dose was determined for analgesic activity in rat on i.p. administration using acetic acid induced writhing assay; assay type: functional; conditions: ip

Structure (SMILES) | ED50 [mg/kg]
CC(C)Oc1ccc(Cc2ccc(NC3=NCCN3)cc2)cc1 | 4

system: Rattus norvegicus; experiment: Effective dose was determined against carrageenan-induced paw hyperalgesia in the rat on peroral administration; assay type: functional; conditions: po

Structure (SMILES) | ED50 [mg/kg]
CC(C)Oc1ccc(Cc2ccc(NC3=NCCN3)cc2)cc1 | 18
